In article PMC10821532, “Sex and Cross-Sex Testosterone Treatment Alters Gamma-Hydroxybutyrate Acid Toxicokinetics and Toxicodynamics in Rats” (Pharmaceutics, 2024):

Key:
[1] = GHB toxicokinetic study, i.v. bolus, plasma and urine up to 8 h, noncompartmental analysis; assay type: in vivo, Sprague Dawley rats; settings: 1 mg/kg AR-C 155858 iv 5 min after 1500 mg/kg GHB iv vs GHB alone
Description: (§1) Male and female Sprague Dawley (SD) rats, ovariectomized (OVX) females, and castrated (CST) males were obtained from Charles River (Wilmington, MA, USA) at 8 weeks of age. The animals were housed under controlled temperature and humidity with an artificial 12 h light/dark cycle, and food and water were available ad libitum. The animals were acclimatized for at least one week before experiments. Hormone treatment was conducted by implanting OVX female and CST male rats subcutaneously with 60-day release pellets containing 7.5 mg testosterone or corresponding placebo pellets (Innovative Research of America) at 10 weeks of age. After 21 days of hormone exposure, rats were utilized in toxicokinetic studies. Age-matched male and female rats were used as control groups. Female rats in the estrus stage were selected for the study. Estrus cycle stages of female rats were monitored daily by vaginal lavage smear, as described in previously published literature. The Institutional Animal Care and Use Committee (IACUC) at the University of the Pacific approved all experiments.
(§2) Jugular vein cannulas were surgically implanted under anesthesia with ketamine/xylazine. Cannulas were flushed daily with heparinized saline to maintain patency. Rats were allowed a minimum of 72 h for recovery from surgery before the experiments were conducted. GHB was administered intravenously as a 1000 mg/kg i.v. bolus or 1500 mg/kg iv bolus with or without AR-C155858 (1 mg/kg i.v. bolus) via a jugular vein cannula to the animals at 13 weeks of age (N = 5–7 per group). Rats were dosed in metabolic cages with ad libitum access to water to allow for the concurrent collection of blood and urine samples for up to 8 h. GHB was administered as a 300 mg/mL solution in sterile water, and the time of administration was considered as time 0. AR-C155858 was administered as a 1 mg/mL solution in 10% cyclodextrin in normal saline 5 min after GHB administration. Blood samples (200 μL) were taken from the jugular vein cannula at different time points: 5, 10, 20, 30, 60, 90, 120, 180, 240, 270, 300, and 330 min for 1000 mg/kg and 10, 30, 60, 90, 120, 180, 240, 270, 300, 330, 360, and 390/480 min for 1500 mg/kg bolus with or without AR-C155858. Plasma samples were separated by centrifugation and stored at −20 °C. Urine samples were collected at 120, 240, and 360 min for 1000 mg/kg and 120, 240, and 390/480 min for 1500 mg/kg bolus with or without AR-C155858 post-dose; the total urine volume was determined, and the samples were stored at −20 °C.
GHB in plasma and urine were quantified using a validated liquid chromatography/tandem mass spectrometry (LC/MS/MS) assay that was described previously. Briefly, for the preparation of plasma standards and quality controls (QCs), 5 μL of GHB-d6 and 5 μL of standard stock solution or QC stock solution were added to 45 μL of blank plasma. For each unknown plasma sample, 5 μL of GHB-d6 was added to 50 μL of plasma. Protein precipitation was then performed by the addition of 800 μL of acetonitrile with 0.1% formic acid, followed by centrifugation at 10,000 rpm for 20 min. 750 μL of the supernatant was transferred to a clean disposable glass tube and evaporated using a MultiVap Nitrogen Evaporator (Organomation, Berlin, MA, USA) under a nitrogen stream. Dried samples were reconstituted in 250 μL of 95:5 double-distilled water—acetonitrile with 0.1% acetic acid. For urine standards and QCs, 25 μL of blank urine, 5 μL of standard or QC stock solution, 5 μL of GHB-d6, and 465 μL of double-distilled water were mixed. For unknown urine samples, 25 μL of the sample was added to 5 μL of GHB-d6 and 470 μL of double-distilled water. The same LC/MS/MS method was used for GHB plasma and urine analyses. LC/MS/MS equipment consisted of an Agilent 1200 series UPLC consisting of an online degasser, binary pump, and autosampler (Agilent Technologies, Santa Clara, CA, USA) connected to a Agilent 6460 Triple Quad Mass Spectrometer. […]

Sprague Dawley (SD) rats = assay: Sedative/hypnotic effect (sleep time, RRR-LRR) after i.v. GHB; assay type: in vivo
Description: as §2
The sedative/hypnotic effects (sleep time) were determined, as described in a previous publication. The sedative/hypnotic duration effect of GHB was determined as the difference between the offset of the sedative/hypnotic effect (RRR) and the onset of the sedative/hypnotic effect (LRR).

MCT4 = test system: MCT4; set-up: method as in PMID 19929853; settings: cited from earlier work
MCT2 = target: MCT2; set-up: method as in PMID 19929853; settings: cited from earlier work
[2] = Plasma testosterone level after 21 days of testosterone pellet treatment (LC-MS); assay type: in vivo, Sprague Dawley rats; settings: Sprague Dawley, rat, sc, 7.5 mg 60-day release testosterone pellet s.c.
Description: as §1
Testosterone plasma concentrations were quantified using a validated LC-MS assay, as described previously. […] The same LC/MS/MS equipment was used for quantification, as mentioned above. […]

| SMILES | Effect of AR-C 155858 on GHB fe [1] | Effect of AR-C 155858 on GHB metabolic clearance [1] | Effect of AR-C 155858 on GHB renal clearance [1] | Effect of AR-C155858 on GHB AUC ([1]; all animal groups) | Effect of AR-C155858 on GHB total clearance ([1]; all animal groups) | Effect of AR-C 155858 on GHB sleep time (Sprague Dawley (SD) rats; 1 mg/kg AR-C 155858 iv 5 min after 1500 mg/kg GHB iv vs GHB alone) | Sleep time after AR-C 155858 administration (Sprague Dawley (SD) rats; 1500 mg/kg GHB iv + 1 mg/kg AR-C 155858 iv 5 min after GHB, all populations) | Inhibitory effect on MCT4 (MCT4) | Ki (MCT2) | concentration at 21 days ([2]; female, OVX rats) | concentration at 21 days ([2]; male, CST rats) |
| --- | --- | --- | --- | --- | --- | --- | --- | --- | --- | --- | --- |
| Cc1n[nH]c(C)c1Cc1sc2c(c1C(=O)N1C[C@H](O)CO1)c(=O)n(C)c(=O)n2CC(C)C [AR-C 155858, 6-[(3,5-Dimethyl-1H-pyrazol-4-yl)methyl]-5-[[(4S)-4-hydroxy-2-isoxazolidinyl]carbonyl]-3-methyl-1-(2-methylpropyl)thieno [2,3-d]pyrimidine-2,4(1H,3H)-dione] | significantly increased fe in testosterone-treated animal groups | did not yield any statistically significant differences in metabolic clearance across all animal groups, except in intact males | statistically significant increase in renal clearance across all animal groups, except for intact males | lower AUC | higher total clearance | significant reduction in sleep time across all animal groups | 0 to 38 min | no inhibitory effect on MCT4 | ~10 nM |  |  |
| C[C@]12CC[C@H]3[C@@H](CCC4=CC(=O)CC[C@@]43C)[C@@H]1CC[C@@H]2O [Testosterone, testosterone] |  |  |  |  |  |  |  |  |  | 6.22 ± 2.63 ng/mL | 5.44 ± 1.96 ng/mL |
